# Measured values as given in patent US20170056336A1, “CO-TARGETING ANDROGEN RECEPTOR SPLICE VARIANTS AND MTOR SIGNALING PATHWAY FOR THE TREATMENT OF CASTRATION-RESISTANT PROSTATE CANCER” (British Columbia Cancer Agency Branch, priority 2015, published 2017).
# Experiments:
# [1] = system: mTOR and AR pathways in parental LNCaP cells; assay: Western blot analysis of mTOR and AR pathways in parental LNCaP cells; format: cell-based, human; details: BEZ-235 15 nM
# EGFR/Erb1 = EGFR/Erb1 (Homo sapiens, UniProt P00533); details: higher concentrations; read-out: concentration inhibiting EGFR/Erb1; cited from earlier work
# EGFR/Erb1, sequence (P00533 25-1210): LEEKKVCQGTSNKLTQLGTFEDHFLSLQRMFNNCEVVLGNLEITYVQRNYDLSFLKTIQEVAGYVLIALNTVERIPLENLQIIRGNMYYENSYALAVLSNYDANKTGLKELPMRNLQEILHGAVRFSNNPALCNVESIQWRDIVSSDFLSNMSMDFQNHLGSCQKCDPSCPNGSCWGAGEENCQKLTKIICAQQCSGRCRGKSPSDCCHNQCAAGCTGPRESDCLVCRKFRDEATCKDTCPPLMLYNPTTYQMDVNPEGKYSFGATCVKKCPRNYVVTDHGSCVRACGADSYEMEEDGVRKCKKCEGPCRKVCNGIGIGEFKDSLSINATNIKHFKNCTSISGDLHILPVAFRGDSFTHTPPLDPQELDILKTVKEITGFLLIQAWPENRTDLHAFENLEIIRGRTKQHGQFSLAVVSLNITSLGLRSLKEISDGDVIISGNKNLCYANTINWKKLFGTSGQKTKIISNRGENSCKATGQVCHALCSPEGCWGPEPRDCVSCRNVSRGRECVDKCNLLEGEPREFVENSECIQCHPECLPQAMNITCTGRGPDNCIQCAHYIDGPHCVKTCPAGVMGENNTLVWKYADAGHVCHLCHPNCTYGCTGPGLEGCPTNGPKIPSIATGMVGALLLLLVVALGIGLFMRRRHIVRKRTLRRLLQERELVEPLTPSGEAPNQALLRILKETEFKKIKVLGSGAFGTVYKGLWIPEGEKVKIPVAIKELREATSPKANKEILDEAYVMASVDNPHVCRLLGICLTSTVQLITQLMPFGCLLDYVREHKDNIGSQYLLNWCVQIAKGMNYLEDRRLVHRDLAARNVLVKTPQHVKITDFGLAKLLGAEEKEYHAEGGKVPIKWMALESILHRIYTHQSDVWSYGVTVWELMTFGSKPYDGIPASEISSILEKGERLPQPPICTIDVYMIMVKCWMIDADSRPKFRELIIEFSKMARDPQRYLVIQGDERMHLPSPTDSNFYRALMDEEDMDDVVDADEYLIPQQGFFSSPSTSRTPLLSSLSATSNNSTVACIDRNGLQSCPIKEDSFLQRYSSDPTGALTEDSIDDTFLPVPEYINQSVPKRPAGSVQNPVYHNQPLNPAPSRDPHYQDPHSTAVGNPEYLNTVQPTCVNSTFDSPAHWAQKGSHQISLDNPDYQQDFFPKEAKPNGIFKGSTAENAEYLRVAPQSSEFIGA
# AR NTD = target: T1, AR NTD (Homo sapiens, UniProt P10275); assay: AR NTD transactivation assay in LNCaP95 cells; format: cell-based; details: 24 h
# T1 sequence (P10275 1-558): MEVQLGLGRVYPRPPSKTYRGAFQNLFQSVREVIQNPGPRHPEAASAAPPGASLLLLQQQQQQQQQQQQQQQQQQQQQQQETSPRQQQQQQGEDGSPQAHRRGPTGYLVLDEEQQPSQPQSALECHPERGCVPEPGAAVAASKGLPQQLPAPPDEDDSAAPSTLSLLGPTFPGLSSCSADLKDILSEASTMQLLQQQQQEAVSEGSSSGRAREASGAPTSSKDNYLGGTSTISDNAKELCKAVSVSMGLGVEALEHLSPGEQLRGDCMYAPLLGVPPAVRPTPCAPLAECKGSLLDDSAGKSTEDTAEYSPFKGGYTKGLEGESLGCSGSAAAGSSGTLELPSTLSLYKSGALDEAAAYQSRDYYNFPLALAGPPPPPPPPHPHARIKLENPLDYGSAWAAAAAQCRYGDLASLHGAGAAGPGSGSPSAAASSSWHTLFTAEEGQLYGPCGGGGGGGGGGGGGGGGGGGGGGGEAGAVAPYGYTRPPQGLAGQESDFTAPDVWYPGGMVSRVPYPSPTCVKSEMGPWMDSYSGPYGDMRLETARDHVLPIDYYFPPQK
# Experimental: Transactivation assays of the AR NTD were performed in LNCaP and LNCaP95 cells cotransfected with p5xGal4UAS-TATA-luciferase and AR NTD-Gal4DBD (FIG. 2D). […] LNCaP95 cells were harvested 24 h after the treatment of indicated compounds.
# The AR NTD is essential for full transcriptional activities (Quayle, S. N. et. al., PNAS 2007, 104, 1331-1336). In LNCaP cells, transactivation of the AR NTD can be induced with IL-6 or by stimulation of the PKA pathway with FSK. In LNCaP95 cells, there is high intrinsic activity of the AR NTD which cannot be further induced by stimulation of these pathways.
# AR = target: T2, AR (Homo sapiens, UniProt P10275, T878A); assay: PSA-, ARR3-, PB-luciferase AR reporter assay in LNCaP95 cells; details: LNCaP95 cells treated with androgen, BEZ-235 15 nM
# T2 sequence (P10275 1-920 T878A): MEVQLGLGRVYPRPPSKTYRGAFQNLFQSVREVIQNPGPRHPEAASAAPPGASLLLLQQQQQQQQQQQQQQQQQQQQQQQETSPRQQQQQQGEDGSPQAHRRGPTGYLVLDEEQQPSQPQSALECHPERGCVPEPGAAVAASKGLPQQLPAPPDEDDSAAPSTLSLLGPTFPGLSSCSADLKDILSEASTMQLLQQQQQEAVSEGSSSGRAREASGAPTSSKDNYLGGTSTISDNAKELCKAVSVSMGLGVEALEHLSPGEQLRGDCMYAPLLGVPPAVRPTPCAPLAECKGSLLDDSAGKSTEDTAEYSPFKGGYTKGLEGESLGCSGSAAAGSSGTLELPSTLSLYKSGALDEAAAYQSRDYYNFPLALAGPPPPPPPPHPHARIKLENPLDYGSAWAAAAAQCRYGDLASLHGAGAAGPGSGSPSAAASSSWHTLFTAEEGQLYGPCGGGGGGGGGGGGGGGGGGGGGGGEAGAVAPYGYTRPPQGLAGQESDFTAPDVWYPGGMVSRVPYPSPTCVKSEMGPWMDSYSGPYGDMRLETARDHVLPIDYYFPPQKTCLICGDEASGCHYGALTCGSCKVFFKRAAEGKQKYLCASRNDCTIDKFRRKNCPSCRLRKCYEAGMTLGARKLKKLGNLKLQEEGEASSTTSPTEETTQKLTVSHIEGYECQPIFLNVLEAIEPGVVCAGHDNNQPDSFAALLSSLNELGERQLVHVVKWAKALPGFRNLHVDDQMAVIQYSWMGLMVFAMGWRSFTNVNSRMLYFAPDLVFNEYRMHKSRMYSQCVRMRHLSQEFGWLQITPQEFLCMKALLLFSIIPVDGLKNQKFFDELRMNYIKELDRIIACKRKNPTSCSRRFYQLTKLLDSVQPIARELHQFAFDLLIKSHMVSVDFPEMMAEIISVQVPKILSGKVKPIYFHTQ
compound,measurement,setting,value
"Cn1c(=O)n(-c2ccc(C(C)(C)C#N)cc2)c2c3cc(-c4cnc5ccccc5c4)ccc3ncc21 [BEZ-235, 2-methyl-2-[4-(3-methyl-2-oxo-8-quinolin-3-ylimidazo[4,5-c]quinolin-1-yl)phenyl]propanenitrile]",pAkt,[1]; LNCaP cells,no effect
same,levels of FL-AR,"[1]; parental LNCaP cells, absence of androgen",increased
same,PSA protein,"[1]; parental LNCaP cells, regardless of androgen status",increased
same,IC50,EGFR/Erb1,> 8.5 µM
same,intrinsic activity of AR NTD,AR NTD,no effect
same,"PSA-, ARR3- and PB-luciferase activities",AR,significantly increased
